System: tyrosinase de champignons
Assay: in vitro tyrosinase activity inhibition test (dopachrome formation followed at 475 nm)
Assay type: biochemical
Conditions: lowering of maximal dopachrome formed (OD 475 nm at plateau) vs no inhibitor; inhibitor at 50 % molaire relative to tyrosine; pH 6,5; 25°C
Text: Certains des composés de formule générale (I) ont été étudiés comparativement à l'hydroquinone à quantité molaire équivalente dans le test d'inhibition in vitro de l'activité de la tyrosinase.
Selon ce test on suit par spectrométrie visible à 475 nm la quantité de dopachrome formée au cours de la chaîne de réactions de transformation de la tyrosine en mélanines. Ces réactions sont catalysées in vitro par la tyrosinase de champignons, en présence d'un co-substrat réducteur (par exemple la L-dopa en petite quantité) pour initier la réaction d'hydroxylation de la L-tyrosine en L-dopa, laquelle est ensuite oxydée catalytiquement en dopaquinone puis en dopachrome, produit intermédiaire avant les réactions d'oxydation non enzymatiques aboutissant à la formation des mélanines.
On mesure donc la concentration en dopachrome formé au cours du temps en présence et en absence de l'inhibiteur.
Les concentrations en inhibiteurs sont fixées à 50 % molaire par rapport à la concentration en tyrosine dans le milieu réactionnel.
On exprime l'effet d'inhibition par l'abaissement de la quantité maximale de dopachrome formée (valeur de densité optique à 475 nm lue au plateau de la courbe) par rapport à la quantité obtenue en l'absence d'inhibiteur.
• A - Tampon phosphate 0,1 M pH = 6,5 (Tween 20 à 1 %) • B - Solution mère de L-tyrosine à 2.10^-3 M dans A • C - Solution mère de L-dopa à 10^-4 M dans A • D - Solution mère de tyrosinase de champignons à 2.400 unités/ml dans A • E - Solution mère de l'inhibiteur à 10^-2 M dans A (les solutions C et D sont à préparer le jour même)
• cuve de référence : 3 ml de A • cuve d'essai : 1 ml de B 0,1 ml de C 1,85ml de A + E • homogénéiser et équilibrer à 25°C • ajouter 0,05 ml de D • mélanger rapidement et observer la cinétique par la mesure de l'absorbance à 475 nm en fonction du temps.

Row | Structure (SMILES) | % change in maximal dopachrome formed vs no inhibitor [%]
1 | Oc1ccc(O)cc1 [hydroquinone, reference compound] | -33
2 | Oc1ccc2c(O)cccc2c1 [[drawing] r3] | -47
3 | Oc1ccc2cc(O)ccc2c1 [[drawing] r4] | -91
